Test system: hepatocytes
Experiment: Seq-Well scRNA-Seq of hepatocytes after APAP overdose (signature scores, DEG vs untreated)
Assay type: in vivo, mouse
Details: APAP vs UT

CC(=O)Nc1ccc(O)cc1 [APAP, acetaminophen]
Apobec1 logFC: 0.3051 | Apol7a logFC: −0.4923 | App logFC: 0.3618 | Arcn1 logFC: 0.3278 | Arl4d logFC: −0.5072 | Asgr1 logFC: −0.3857 | Atox1 logFC: −0.4462 | Atp5e logFC: −0.6502 | Atp5f1 logFC: −0.5171 | Atp5j2 logFC: −0.5131 | Atp5j logFC: −0.4837 | Atp8b1 logFC: 0.3628 | Atxn1 logFC: 0.3049 | BC005537 logFC: 0.3543 | Baz1a logFC: 0.2596 | Bcl3 logFC: 0.289 | Blvrb logFC: −0.5451 | Btg1 logFC: 0.458 | Btg2 logFC: 0.8321 | C1qa logFC: 0.5148 | C1qc logFC: 0.5861 | C8a logFC: 0.3337 | Calm1 logFC: 0.4131 | Calu logFC: 0.3041 | Canx logFC: 0.3434 | Cat logFC: 0.2626 | Cd44 logFC: 0.3037 | Cd53 logFC: 0.2656 | Cd74 logFC: 0.4539 | Cd97 logFC: 0.3458 | Cd302 logFC: −0.5499 | Cebpb logFC: −0.4716 | Ces1e logFC: 0.2656 | Ces3b logFC: −0.3664 | Cfh logFC: 0.4009 | Cfhr2 logFC: −0.4485 | Cfi logFC: 0.2516 | Cfp logFC: 0.3562 | Chchd2 logFC: −0.5525 | Chic2 logFC: 0.4198 | Cldn14 logFC: 0.3645 | Clpx logFC: −0.4047 | Cltc logFC: 0.785 | Cmah logFC: 0.3616 | Cmbl logFC: −0.4427 | Cml1 logFC: −0.6142 | Cml2 logFC: −0.3979 | Copa logFC: 0.3451 | Cox5b logFC: −0.4988 | Cox7a2 logFC: −0.6503 | Cox7b logFC: −0.6422 | Cpb2 logFC: 0.3222 | Cps1 logFC: 0.3245 | Crp logFC: −0.5069 | Csde1 logFC: 0.3269 | Ctsd logFC: 0.2579 | Ctsl logFC: 0.5301 | Cxadr logFC: 0.6985 | Cyb5b logFC: −0.4233 | Cyb5r3 logFC: 0.339 | Cyp4a12a logFC: −0.4568 | Cytip logFC: 0.2676 | Dcxr logFC: −0.4409 | Ddt logFC: −0.5222 | Ddx3x logFC: 0.6569 | Ddx5 logFC: 0.5229 | Ddx21 logFC: 0.7314 | Dgkd logFC: 0.3708 | Dhrs3 logFC: −0.4676 | Dio1 logFC: −0.5453 | Dkc1 logFC: 0.3258 | Dnajc12 logFC: 0.3221 | Dot1l logFC: 0.397 | Dst logFC: 0.511 | Dstn logFC: 0.3243 | Dusp6 logFC: 0.5916 | Dusp16 logFC: 0.4605 | Eaf1 logFC: 0.5218 | Ebpl logFC: −0.4503 | Eef1b2 logFC: −0.3173 | Eef2 logFC: 0.5259 | Efna1 logFC: 0.3361 | Eif1a logFC: 0.7953 | Eif4g1 logFC: 0.3749 | Epas1 logFC: 0.7758 | Epb4.1 logFC: 0.5628 | Errfi1 logFC: 0.3937 | Etf1 logFC: 0.5594 | Etfb logFC: −0.3655 | Etnk1 logFC: 0.3521 | F5 logFC: 0.3006 | Fabp2 logFC: −0.6156 | Fcgr3 logFC: 0.3082 | Fcna logFC: 0.3774 | Fdx1 logFC: −0.6234 | Fgl2 logFC: 0.2818 | Fkbp5 logFC: 0.5161 | Fndc3b logFC: 0.4096 | Fos logFC: 0.432 | Fxyd1 logFC: −0.4799 | Gamt logFC: −0.5603 | Gas5 logFC: −0.3362 | Gchfr logFC: −0.5548 | Gclm logFC: 0.2699 | Gjb2 logFC: 0.6082 | Glyat logFC: −0.6477 | Gm4076 logFC: −0.3255 | Gm4952 logFC: −0.4987 | Gm5096 logFC: −0.3631 | Gm23388 logFC: 0.4162 | Gm24187 logFC: 0.4319 | Gm26917 logFC: 0.8237 | Gnl2 logFC: 0.3905 | Gnl3 logFC: 0.576 | Gpt2 logFC: 0.5391 | Gsta2 logFC: 0.2522 | Gstm3 logFC: −0.5986 | Gstz1 logFC: −0.4641 | Gulo logFC: −0.8017 | H2-Aa logFC: 0.3279 | H2-Ab1 logFC: 0.461 | H2-Eb1 logFC: 0.3279 | H3f3b logFC: 0.7029 | Haao logFC: −0.5912 | Hacl1 logFC: −0.7069 | Hadha logFC: 0.2509 | Hal logFC: 0.2801 | Hao1 logFC: 0.323 | Hc logFC: 0.3679 | Heatr1 logFC: 0.406 | Hebp1 logFC: −0.6354 | Hes6 logFC: −0.5613 | Hibadh logFC: −0.4994 | Hic2 logFC: 0.2898 | Hif1a logFC: 0.5169 | Hint2 logFC: −0.4243 | Hook1 logFC: 0.3274 | Hpd logFC: −0.5182 | Hpgd logFC: −0.3878 | Hpx logFC: −0.3033 | Hs3st3b1 logFC: 0.343 | Hsd17b2 logFC: −0.5959 | Hspa13 logFC: 0.3548 | Hspb8 logFC: 0.6339 | Hspe1 logFC: −0.4807 | Ibtk logFC: 0.3311 | Ier5 logFC: 0.289 | Ifitm3 logFC: −0.4251 | Igfbp1 logFC: 1.059 | Igfbp2 logFC: −0.3451 | Il6st logFC: 0.3335 | Il13ra1 logFC: 0.303 | Inmt logFC: −0.731 | Insig1 logFC: 0.4655 | Ipo7 logFC: 0.3246 | Itgb2 logFC: 0.2723 | Itih2 logFC: 0.5011 | Jak1 logFC: 0.6039 | Jmjd1c logFC: 0.6366 | Kctd3 logFC: 0.2608 | Keg1 logFC: −0.8245 | Klf15 logFC: −0.4518 | Kmo logFC: −0.3844 | Lactb2 logFC: −0.5965 | Laptm5 logFC: 0.3382 | Lcn2 logFC: 0.4122 | Leap2 logFC: −0.6713 | Lect2 logFC: −0.627 | Lgmn logFC: 0.4846 | Lgr4 logFC: 0.269 | Lman1 logFC: 0.2986 | Lmo4 logFC: 0.3205 | Lonp2 logFC: −0.4674 | Lpin1 logFC: 0.2775 | Lrp1 logFC: 0.5051 | Lrrc59 logFC: 0.3772 | Lrrfip1 logFC: 0.4459 | Lyst logFC: 0.4093 | Maff logFC: 0.3553 | Mak16 logFC: 0.3171 | Malat1 logFC: 0.9206 | Manf logFC: 0.4689 | Map2k3 logFC: 0.4347 | Mbl1 logFC: −0.713 | Mcm10 logFC: −0.4874 | Mdn1 logFC: 0.318 | Minos1 logFC: −0.4555 | Mlec logFC: 0.3246 | Mmp14 logFC: 0.2889 | Mpc1 logFC: −0.2818 | Mpc2 logFC: −0.4828 | Mrpl14 logFC: −0.459 | Msn logFC: 0.2602 | Msrb1 logFC: −0.599 | Mug2 logFC: 0.3704 | Mup2 logFC: 1 | Myo1e logFC: 0.6143 | Nab1 logFC: 0.3342 | Ndufa6 logFC: −0.6136 | Ndufa7 logFC: −0.5559 | Ndufa13 logFC: −0.4388 | Ndufb2 logFC: −0.5772
